The test system of the assay is bovine cardiac myofibrils. As to the kind of experiment: Myofibril assay: PK/LDH-coupled steady-state ATPase activity of skinned bovine cardiac myofibrils. The format is biochemical. The settings on record: Ca2+ activating to 75% of maximal rate. The gist of the method:
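Steady-state ATPase of detergent-skinned bovine left-ventricular myofibrils (1 mg/mL), PK/LDH-coupled NADH read at 340 nm, in PIPES/MgCl2 buffer pH 6.8 with 50 μM ATP, 0.6 mM EGTA and CaCl2 set for 50% or 75% activation. Inhibition of activity measured.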

Take `CNc1cccc(N2CC3(C2)C(=O)N(c2ccc(C#N)cc2F)CC(=O)N3Cc2ccc(C(F)(F)F)cc2)c1` [Compound 536, 3-fluoro-4-[2-[3-(methylamino)phenyl]-6,9-dioxo-5-[[4-(trifluoromethyl)phenyl]methyl]-2,5,8-triazaspiro[3.5]nonan-8-yl]benzonitrile]: the “CDMF75 IC15” value was found to be 0.2 µM.
As for `CC(C)N1CC(=O)N(Cc2ccc(C(F)(F)F)cc2)C2(CCc3ccccc32)C1=O` (stereo not shown) [Compound 319, 4′-isopropyl-1′-(4-(trifluoromethyl)benzyl)-2,3-dihydrospiro[indene-1,2′-piperazine]-3′,6′-dione], the “CDMF75 IC15” value is 24.0 µM.
With `Cc1ccc(CN2C(=O)CN(c3ncc(Cl)cc3F)C(=O)C23CC2(COC2)C3)cc1` [Compound 816, 10-(5-chloro-3-fluoro-pyridin-2-yl)-7-(4-methyl-benzyl)-2-oxa-7,10-diazadispiro[3.1.56.14]-dodecane-8,11-dione], the “CDMF75 IC15” value stood at 0.9 µM.
With `O=C1C(C23CC(O)(C2)C3)N(Cc2ccc(Cl)cc2)C(=O)CN1c1ncc(Cl)cc1F` (stereo not shown) [Compound 841, 1-(5-chloro-3-fluoropyridin-2-yl)-4-(4-chlorobenzyl)-3-(3-hydroxybicyclo[1.1.1]-pentan-1-yl)piperazine-2,5-dione], the “CDMF75 IC15” value was found to be 2.7 µM.
With `CNC(=O)N1CC2(C1)C(=O)N(c1ccc(OC(F)(F)F)cc1)CC(=O)N2Cc1ccc(C(F)(F)F)cc1` [Compound 160, N-methyl-6,9-dioxo-8-(4-(trifluoromethoxy)-phenyl)-5-(4-(trifluoromethyl)benzyl)-2,5,8-triazaspiro[3.5]-nonane-2-carboxamide], the “CDMF75 IC15” value is 7.1 µM.
For the compound `CC(=O)N1CC(CC2C(=O)N(c3ncc(Cl)cc3F)CC(=O)N2Cc2ccc(C(F)(F)F)cc2)C1` (stereo not shown) [Compound 661, 3-((1-acetylazetidin-3-yl)methyl)-1-(5-chloro-3-fluoropyridin-2-yl)-4-(4-(trifluoromethyl)benzyl)-piperazine-2,5-dione], the “CDMF75 IC15” value turned out to be 17.0 µM.
Regarding `CC(C)(C)OC[C@H]1C(=O)N(c2ccc(C#N)cc2F)CC(=O)N1Cc1ccc(C(F)(F)F)cc1` [Compound 285, (S)-4-(3-(tert-butoxymethyl)-2,5-dioxo-4-(4-(trifluoro-methyl)benzyl)piperazin-1-yl)-3-fluorobenzonitrile], the “CDMF75 IC15” value is 8.3 µM.
On to `CCNC(=O)N1CCC2(C1)C(=O)N(C(C)C)CC(=O)N2Cc1ccc(C(F)(F)F)cc1` (stereo not shown) [Compound 116, N-ethyl-9-isopropyl-7,10-dioxo-6-(4-(trifluoromethyl)benzyl)-2,6,9-triazaspiro[4.5] decane-2-carboxamide], for which the “CDMF75 IC15” value came to 7.2 µM.
As for `CC(C)N1CC(=O)N(Cc2ccc(C(F)(F)F)cc2)C2(CCN(c3cc(C#N)ccn3)C2)C1=O` (stereo not shown) [Compound 88, 2-(9-isopropyl-7,10-dioxo-6-(4-(trifluoromethyl)-benzyl)-2,6,9-triazaspiro[4.5]decan-2-yl)isonicotinonitrile], the “CDMF75 IC15” value was 4.0 µM.
Consider `CC(C)N1CC(=O)N(Cc2ccc(Cl)cc2)C2(CN(C(=O)Nc3cnn(C)c3)C2)C1=O` [Compound 66, 5-(4-chlorobenzyl)-8-isopropyl-N-(1-methyl-1H-pyrazol-4-yl)-6,9-dioxo-2,5,8-triazaspiro[3.5]-nonane-2-carboxamide], for which the “CDMF75 IC15” value was determined as 17.6 µM.
In the case of `Cc1ncccc1N1CC2(C1)C(=O)N(C(C)C)CC(=O)N2Cc1ccc(Cl)cc1` [Compound 13, 5-(4-chlorobenzyl)-8-isopropyl-2-(2-methyl-pyridin-3-yl)-2,5,8-triazaspiro[3.5]nonane-6,9-dione], the “CDMF75 IC15” value is 7.1 µM.
With `CC(C)N1CC(=O)N(Cc2ccc(Cl)cc2)C2(CCN(C(N)=O)C2)C1=O` (single isomer, unassigned) [Compound 367A, 6-[(4-chlorophenyl)methyl]-7,10-dioxo-9-(propan-2-yl)-2,6,9-triazaspiro[4.5]decane-2-carboxamide], the “CDMF75 IC15” value was 8.8 µM.
As for `CC(=O)N1CC2(C1)C(=O)N(c1ncc(Br)cc1F)CC(=O)N2[C@@H](C)c1ccc(C(F)(F)F)cc1` [Compound 571, (S)-2-acetyl-8-(5-bromo-3-fluoropyridin-2-yl)-5-(1-(4-(trifluoromethyl)phenyl)-ethyl)-2,5,8-triazaspiro-[3.5]nonane-6,9-dione], the “CDMF75 IC15” value came out at 2.0 µM.
Consider `CNC(=O)c1ccc(N2CC3(C2)C(=O)N(c2ccc(C#N)cc2F)CC(=O)N3Cc2ccc(C(F)(F)F)cc2)cc1` [Compound 540, 4-(8-(4-cyano-2-fluorophenyl)-6,9-dioxo-5-(4-(trifluoromethyl)benzyl)-2,5,8-triazaspiro[3.5]nonan-2-yl)-N-methylbenzamide], for which the “CDMF75 IC15” value worked out at 0.2 µM.
Regarding `NC(=O)[C@H]1C[C@]2(C1)C(=O)N(c1ncc(Cl)cc1F)CC(=O)N2Cc1ccc(C(F)F)cc1` (single isomer, unassigned) [Compound 875B, 8-(5-chloro-3-fluoropyridin-2-yl)-5-(4-(difluoromethyl)benzyl)-6,9-dioxo-5,8-diazaspiro[3.5]nonane-2-carboxamide], the “CDMF75 IC15” value was found to be 3.2 µM.
In the case of `CC(C)N1CC(=O)N(Cc2ccc(Cl)cc2)C2(CN(c3cncs3)C2)C1=O` [Compound 33, 5-(4-chlorobenzyl)-8-isopropyl-2-(thiazol-5-yl)-2,5,8-triazaspiro[3.5]-nonane-6,9-dione], the “CDMF75 IC15” value was found to be 5.4 µM.
`Cc1ccc(CN2C(=O)CN(c3ncc(Cl)cc3F)C(=O)C23CC2(CN(C=O)C2)C3)cc1` [Compound 830, 10-(5-chloro-3-fluoro-pyridin-2-yl)-7-(4-methyl-benzyl)-8,11-dioxo-2,7,10-triazadispiro[3.1.56.14]-dodecane-2-carbaldehyde]: the “CDMF75 IC15” value is 1.75 µM.
On to `Cc1csc(N2CC3(C2)C(=O)N(C(C)C)CC(=O)N3Cc2ccc(Cl)cc2)n1` [Compound 43, 5-(4-chlorobenzyl)-8-isopropyl-2-(4-methyl-thiazol-2-yl)-2,5,8-triazaspiro[3.5]nonane-6,9-dione], for which the “CDMF75 IC15” value came to 3.3 µM.
Regarding `CC(C)N1CC(=O)N(Cc2ccc(Cl)cc2)C(c2ccc(Cl)cc2)C1=O` (single isomer, unassigned) [Compound 288B, 3-(4-chlorophenyl)-4-[(4-chlorophenyl)methyl]-1-(propan-2-yl)piperazine-2,5-dione], the “CDMF75 IC15” value is above 39 µM.
Take `CNC(=O)N1CC2(C1)C(=O)N(c1ccc(F)c(F)c1)CC(=O)N2Cc1ccc(C(F)(F)F)cc1` [Compound 152, 8-(3,4-difluorophenyl)-N-methyl-6,9-dioxo-5-(4-(trifluoromethyl)benzyl)-2,5,8-triazaspiro[3.5]nonane-2-carboxamide]: the “CDMF75 IC15” value is 2.8 µM.
As to `N#Cc1ccc(N2CC(=O)N(Cc3ccc(C(F)(F)F)cc3)[C@]3(C[C@H](c4nnc(C(F)F)o4)C3)C2=O)c(F)c1` [Compound 454B], the “CDMF75 IC15” value is 0.1 µM.
`Cc1ccc(CN2C(=O)CN(C(C)C)C(=O)C23CN(c2ccnc(C)c2)C3)cc1` [Compound 30, 8-isopropyl-5-(4-methylbenzyl)-2-(2-methylpyridin-4-yl)-2,5,8-triazaspiro[3.5]-nonane-6,9-dione]: the “CDMF75 IC15” value was 21.1 µM.
